Laboratory results: patent publication US20020048580A1, “Method of inducing lung branching” (Institut National De La Sante Et De La Recherche Medicale, priority 2000, published 2002)
Entries after “also recorded” stand apart in the source; their conditions may differ. Like-named read-outs stand apart in the source and are kept apart here. Values belong to the compound of their own block, whether it stands above or below them.

What was measured:
[1] = system: E8.0 embryos; assay: Whole embryo culture, primary lung bud and oesophagotracheal fold formation; assay type: cell-based, mouse
Procedure: Embryos were collected at E8.0 (i.e. 36 hours prior to the formation of primary lung buds and tracheal diverticulum; Kaufman, M. H., The Atlas of Mouse Development, London Academic Press (1992)), and cultured for 48 hours (i.e. until the equivalent of E9.5 in vivo) either in the presence of the pan-RAR antagonist, Compound VIII (Chazaud, C., et al., Development 126:2589-2596 (1999); Wendling, O., et al., Development 127:1553-62 (2000), or in the presence of the retinoid vehicle (i.e. ethanol alone). Treatment with 10^−6 M Compound VIII, inhibited primary lung bud outgrowth (FIGS. 1A-1D; l and r) and caused a failure of oesophagotracheal fold formation (arrowheads in FIG. 1F compare with FIG. 1G). […] Therefore, a block in RA signal transduction before and at the onset of lung bud appearance inhibits the formation of the respiratory system from the primitive foregut.
Whole embryos from CD 1×CD 1 crosses were collected at E8.0, staged and cultured according to previously described methods in the presence of retinoids or ethanol vehicle alone for 48 hours (New D.A.T., Postimplantation Mammalian Embryos: A Practical Approach, Cop, A. J. and Cockroft, D. L., eds., Oxford University Press (1990); Wendling, O., et al., Development 127:1553-62 (2000)). For morphological assessment, serial transverse histological sections were stained with hematoxylin and eosin.

[2] = system: CRBPI transcripts; assay: CRBPI expression in cultured lungs (RNAse protection); assay type: cell-based, mouse; conditions: 10^−6 M, cultured E12.5 wild type lungs
Procedure: FIG. 5A. RNAse protection analysis of CRBPI transcripts in E11.75 wild type lungs cultured for four days in the presence of retinoids or ethanol; the explants were analyzed four hours after the last addition of the retinoids, and/or ethanol to the culture media (2 μg RNA per track; exposure times, four to 24 hours). Six experiments per group, 10 lungs per experiment.
The lung at the pseudoglandular stage is a major site of expression of CRBPI in the embryo (Dollé, P., et al., Development 110:1133-1151 (1990)). In cultured E12.5 wild type lungs, CRBPI expression was increased in the presence of 10^−6 M RA and decreased by 10^−6 M Compound VIII (FIG. 5A). Thus, increased and decreased expression of CRBPI are correlated with retinoid-induced inhibition and stimulation of branching, respectively. To further test an involvement of CRBPI in lung morphogenesis, explants from E12.5 CRBPI null mutants (Ghyselinck, N. B., et al., EMBO J. 18:4903-4914 (1999)) were cultured in the presence of various concentrations of the pan-RAR antagonist. […]

[3] = system: pulmonary alveoli; conditions: cited from earlier work; for number of pulmonary alveoli: postnatal treatment, newborn rats
[4] = system: E11.75 wild type lungs; assay: Lung explant culture, average terminal bud number (ATBN), wild type; assay type: cell-based, mouse; conditions: for retinoid-induced changes in ATBN: 10^−6 M RA and 10^−6 M Compound VIII simultaneously added; for average terminal bud number (ATBN): 4 days in culture
Procedure: Lung explants from E11.75 or E12.5 embryos were cultured for 4 days, unless otherwise indicated. Control explants were cultured in the presence of the retinoid vehicle alone.
The mouse lines carrying the RARβ, RARγ and CRBPI null mutations and their genotyping protocols have been described previously (Lohnes, D., et al., Cell 73:643-658 (1993); Ghyselinck, N. B., et al., Int. J. Dev. Biol. 41:425-447 (1997); Ghyselinck, N. B., et al., EMBO J. 18:4903-4914 (1999)). The morning of appearance of the vaginal plug was designated as E0.5. For explant culture, E11.75 and E12.5 lungs from RARβ^+/−×RARβ^+/−, RARγ^+/−×RARγ^+/−, CRBPI^−/−×CRBPI^−/− and wildtype crosses were dissected in PBS and incubated in BGJB medium (Fitton-Jackson modified, GibcoBRL), 5% delipidated fetal calf serum (FCS, GibcoBRL) and […] vitamin C (Sigma) on millipore filters (GibcoBRL), at 37° C., in the presence of 5% CO2. Half of the media, supplemented with fresh retinoids (see below), was changed daily. The cultured lung buds reproducibly grew and branched for at least seven days in culture (data not shown). Average terminal bud number (ATBN) was calculated after counting every bud in each explant at 0, 24, 48, 72 and 96 hours after the commencement of culture. Significant differences in ATBN between different groups were determined by ANOVA and Newman-Keuls multiple comparison tests according to previously described methods (Motulsky, H., Intuitive Biostatistics, New York: Oxford University Press (1995)). The synthetic retinoid Compound VIII [a specific pan RAR (α, β and γ) antagonist (Bristol-Myers-Squibb, N.J.); Chazaud, C., et al., Development 126:2589-2596 (1999); Wendling, O., et al., Development 127:1553-62 (2000)] and RA (all-trans retinoic acid) (Sigma) were diluted in ethanol and added to the culture medium at a final ethanol concentration of 0.1% at the beginning of culture and every subsequent 24 hours.

[5] = system: RARβ transcripts; assay: RARβ expression in lung explants (whole-mount ISH, RNAse protection); assay type: cell-based, mouse; conditions: for retinoid-induced changes in RARβ expression: 10^−6 M RA and 10^−6 M Compound VIII simultaneously added; for RARβ expression: 10^−6 M, E11.75 lung explants
Procedure: FIG. 3A. Whole-mount ISH for detection of RARβ transcripts following 24 hours of exposure of E11.75 lung explants to either retinoid vehicle alone, 10^−6 M RA or 10^−6 M Compound VIII.
FIG. 3B. RNAse protection analyses of RARβ 1/3/4, RARβ2 and vimentin transcripts in lungs explanted at E11.75 and cultured for four days in the presence of retinoids or ethanol; the explants were analyzed four hours after the last addition of the retinoids and/or ethanol to the culture media (2 μg RNA per track; exposure times, four to 24 hours).
The expression pattern of RARβ transcripts in E11.75 lung explants cultured for 24 hours in the absence of retinoids was similar to that observed in vivo at E13.5 (FIG. 3A). […] It is also noteworthy that only limited changes in the expression of vimentin, a specific mesenchymal marker, occurred following retinoid treatment (FIG. 3B). […] In order to investigate this possibility, we compared the effects of 10^−6 M RA upon ATBN in explants from RARβ null embryos (Ghyselinck, N. B., et al., Int. J. Dev. Biol. 41:425-447 (1997)), heterozygotesi and wild type littermates. […] The explants were then treated for 48 hours with 10^−6 M RA (FIG. 3C).
Total RNA preparation, RNAse protection assays and in situ hybridizations were performed as previously described (Chirgwin, J. M., et al., Biochemistry 18:5294-5299 (1979); Décimo, D., et al., “In situ hybridization of nucleic acid probes to cellular RNA,” in Gene Probes 2, A Practical Approach, Hames, B. D. and Higgins, S., eds.: Oxford University Press (1995) pp. 183-210; Mollard, R. and Dziadek, M., Int. J. Dev. Biol. 41:655-666 (1997); Ghyselinck, N. B., et al., Int. J. Dev. Biol. 41:425-447 (1997)). CRBPI, H4, RARβ and vimentin cDNAs have been previously described (Ghyselinck, N. B., et al., Int. J. Dev. Biol. 41:425-447 (1997); Mollard, R. and Dziadek, M., Int. J. Dev. Biol. 41:655-666 (1997)).

[6] = system: E12.5 RARβ wild type, heterozygote (+/−) and null (−/−) mutant lungs; assay: ATBN in lung explants from RARβ null, heterozygote and wild type littermates; assay type: cell-based, mouse; conditions: 10^−6 M, 48 hours, vs RARβ+/− ethanol controls
Procedure: Appearance of representative E12.5 RARβ, heterozygote (+/−) and null (−/−) mutant lungs from RARβ^+/−/RARβ^+/− crosses, cultured for 24 hours in the absence of retinoids and then 48 hours in the presence of either vehicle alone or 10^−6 M RA. The accompanying histogram depicts ATBN versus treatment at 72 hours of culture; each group consists of seven explants and is representative of two individual experiments. b1=primary bronchi; b2=secondary bronchi; db=distal bud; m=mesenchyme; * p<0.01 relative to control. Error bars represent +/− standard deviation.
For explant culture, E11.75 and E12.5 lungs from RARβ^+/−×RARβ^+/−, RARγ^+/−×RARγ^+/−, CRBPI^−/−×CRBPI^−/− and wildtype crosses were dissected in PBS and incubated in BGJB medium (Fitton-Jackson modified, GibcoBRL), 5% delipidated fetal calf serum (FCS, GibcoBRL) and 180mg/ml vitamin C (Sigma) on millipore filters (GibcoBRL), at 37° C., in the presence of 5% CO2. Half of the media, supplemented with fresh retinoids (see below), was changed daily. […] Average terminal bud number (ATBN) was calculated after counting every bud in each explant at 0, 24, 48, 72 and 96 hours after the commencement of culture. Significant differences in ATBN between different groups were determined by ANOVA and Newman-Keuls multiple comparison tests according to previously described methods (Motulsky, H., Intuitive Biostatistics, New York: Oxford University Press (1995)).

[7] = system: lung cultures; conditions: cited from earlier work
[8] = system: E12.5 RARγ wild type (+/+), heterozygote (+/−) and null (−/−) mutant lungs; assay: ATBN in RARγ wild type, heterozygote and null lung explants; assay type: cell-based, mouse; conditions: 10^−6 M
Procedure: FIG. 4C. E12.5 RARγ wild type (+/+), heterozygote (+/−) and null (−/−) mutant lungs from RARγ^+/−/RARγ^+/−heterozygote crosses were cultured for 24 hours in the absence of retinoids and then for 72 hours in the presence of 10^−6M Compound VIII (seven explants per group, two individual experiments). […] Error bars represent +/− standard deviation. Scale bar=100 μm.
RARα1, RARα2 and RARγ2 transcripts are expressed ubiquitously in E13.5 lungs in vivo. […]
(§1) The mouse lines carrying the RARβ, RARγ and CRBPI null mutations and their genotyping protocols have been described previously (Lohnes, D., et al., Cell 73:643-658 (1993); Ghyselinck, N. B., et al., Int. J. Dev. Biol. 41:425-447 (1997); Ghyselinck, N. B., et al., EMBO J. 18:4903-4914 (1999)). […] Average terminal bud number (ATBN) was calculated after counting every bud in each explant at 0, 24, 48, 72 and 96 hours after the commencement of culture. Significant differences in ATBN between different groups were determined by ANOVA and Newman-Keuls multiple comparison tests according to previously described methods (Motulsky, H., Intuitive Biostatistics, New York: Oxford University Press (1995)). […]

[9] = system: E12.5 CRBPI null mutant lungs; assay: ATBN in CRBPI null mutant lung explants; assay type: cell-based, mouse
Excerpt: FIG. 5B. ATBN in CRBPI null mutant lungs cultured for four days in the presence of either ethanol alone (control), or 10^−6 M or 10^−7 M Compound VIII. Six explants per group, three individual experiments; * p<0.01 relative to control. Error bars represent +/− standard deviation.
The lung at the pseudoglandular stage is a major site of expression of CRBPI in the embryo (Dollé, P., et al., Development 110:1133-1151 (1990)). In cultured E12.5 wild type lungs, CRBPI expression was increased in the presence of 10^−6 M RA and decreased by 10^−6 M Compound VIII (FIG. 5A). […]
as §1

[10] = 10^−6 M, E8.0 embryos cultured 48 hours, vs ethanol vehicle

CRBPI expression [2]: increased
retinoid-induced changes in RARβ expression [5]: prevented
SMILES: CC1=C(/C=C/C(C)=C/C=C/C(C)=C/C(=O)O)C(C)(C)CCC1 [RA, all-trans retinoic acid]
Compound VIII-induced defects of lung bud outgrowth and oesophagotracheal fold formation ([1]; simultaneous addition of 10^−6 M Compound VIII and 10^−7 M RA, 48 hours): partially prevented
alveolar number ([3]; animal models of emphysema): restores
number of pulmonary alveoli [3]: increases
number of pulmonary alveoli ([3]; listed as retinoic acid): increase
increased explant size and terminal bud numbers of Compound VIII treated explants ([4]; 10^−6 M Compound VIII with concomitant 10^−6 M RA): reduced
retinoid-induced changes in ATBN [4]: prevented
average terminal bud number (ATBN) ([4]; 10^−6 M): significantly decreased; also recorded: significant decrease
average terminal bud number (ATBN) ([4]; 10^−7 M): significantly decreased; also recorded: significant decrease
average terminal bud number (ATBN) ([4]; 10^−8 M): ineffective
RARβ expression [5]: induced the expression of RARβ throughout the pulmonary tree, including the distal buds
ATBN ([6]; RARβ null explants): no significant difference
ATBN ([6]; RARβ+/− explants): significant reduction
ATBN ([6]; wild type explants): significant reduction
branching morphogenesis [7]: inhibitory effect

CRBPI expression [2]: decreased
retinoid-induced changes in RARβ expression [5]: prevented
SMILES: CC1(C)CC=C(C#Cc2ccccc2)c2cc(/C=C/c3ccc(C(=O)O)cc3)ccc21 [Compound VIII]
oesophagotracheal fold formation [1, 10]: failure
primary lung bud outgrowth [1, 10]: inhibited
differences in the stimulation of ATBN between RARγ genotype groups [8]: No significant differences
ATBN ([9]; CRBPI null lungs, 10^−7 M, four days): significant increase
sensitivity of CRBPI null lungs relative to wild type lungs to stimulation of distal bud formation ([9]; CRBPI null vs wild type lungs): approximately 10 fold
average terminal bud number (ATBN) ([4]; 2×10^−6 M): significantly increased; also recorded: significant increases
explant size and terminal bud numbers ([4]; 10^−6 M): Increased
retinoid-induced changes in ATBN [4]: prevented
RA-induced decrease in ATBN ([4]; 10^−6 M and 10^−7 M RA with concomitant 10^−6 M Compound VIII): negated
average terminal bud number (ATBN) ([4]; 10^−6 M): significantly increased; also recorded: significant increases
average terminal bud number (ATBN) ([4]; 10^−7 M): ineffective
average terminal bud number (ATBN) ([4]; 10^−8 M): ineffective
RARβ expression [5]: decreased RARβ expression in secondary bronchi
